Laboratory results published in ChEMBL document CHEMBL3046942, “Synthesis and biological activity of new cycloalkylthiophene-Schiff bases and their Cr(III) and Zn(II) complexes” (2010).
Active and inactive are the calls of the source. The rule behind the calls is not given here.

What was measured:
Listeria monocytogenes [1] = experiment: Antibacterial activity against Listeria monocytogenes ATCC 19115 at 0.25 ug/ml after 24 hr by agar well diffusion method; format: functional; details: ATCC 19115, 24 h, read-out: DIZ
Staphylococcus aureus [2] = experiment: Antibacterial activity against Staphylococcus aureus ATCC 25923 at 0.25 ug/ml after 24 hr by agar well diffusion method; format: functional; details: ATCC 25923, 24 h, read-out: DIZ
Shigella boydii [3] = experiment: Antibacterial activity against Shigella boydii type 11 at 0.25 ug/ml after 24 hr by agar well diffusion method; format: functional; details: type 11, 24 h, read-out: DIZ
Escherichia coli [4] = experiment: Antibacterial activity against Escherichia coli ATCC 1280 at 0.25 ug/ml after 24 hr by agar well diffusion method; format: functional; details: ATCC 1280, 24 h, read-out: DIZ
Proteus [5] = experiment: Antibacterial activity against Proteus OX2 Wrah at 0.25 ug/ml after 24 hr by agar well diffusion method; format: functional; details: read-out: DIZ
Salmonella typhimurium [6] = experiment: Antibacterial activity against Salmonella enterica subsp. enterica serovar Typhi H NCTC 901.8394 at 0.25 ug/ml after 24 hr by agar well diffusion method; format: functional; details: H NCTC 901.8394, 24 h, read-out: DIZ
Candida albicans = experiment: Antifungal activity against Candida albicans Y-1200-NIH at 0.25 ug/ml after 24 hr by agar well diffusion method; format: functional; details: read-out: DIZ
Pseudomonas putida [7] = experiment: Antibacterial activity against Pseudomonas putida at 0.25 ug/ml after 24 hr by agar well diffusion method; format: functional; details: read-out: DIZ
Shigella boydii [8] = experiment: Antibacterial activity against Shigella boydii type 16 at 0.25 ug/ml after 24 hr by agar well diffusion method; format: functional; details: type 16, 24 h, read-out: DIZ
Shigella boydii [9] = experiment: Antibacterial activity against Shigella boydii type 6 RSKK-96043 at 0.25 ug/ml after 24 hr by agar well diffusion method; format: functional; details: type 6 RSKK-96043, 24 h, read-out: DIZ
Brucella abortus = experiment: Antibacterial activity against Brucella abortus RSKK-03026 at 0.25 ug/ml after 24 hr by agar well diffusion method; format: functional
Shigella boydii [10] = experiment: Antibacterial activity against Shigella boydii type 16 at 10 ug after 24 hr by agar well diffusion method; format: functional; details: type 16, 24 h, read-out: DIZ
Listeria monocytogenes [11] = experiment: Antibacterial activity against Listeria monocytogenes ATCC 19115 at 10 ug after 24 hr by agar well diffusion method; format: functional; details: ATCC 19115, 24 h, read-out: DIZ
Proteus [12] = experiment: Antibacterial activity against Proteus OX2 Wrah at 10 ug after 24 hr by agar well diffusion method; format: functional; details: read-out: DIZ
Escherichia coli [13] = experiment: Antibacterial activity against Escherichia coli ATCC 1280 at 10 ug after 24 hr by agar well diffusion method; format: functional; details: ATCC 1280, 24 h, read-out: DIZ
Pseudomonas putida [14] = experiment: Antibacterial activity against Pseudomonas putida at 10 ug after 24 hr by agar well diffusion method; format: functional; details: read-out: DIZ
Salmonella typhimurium [15] = experiment: Antibacterial activity against Salmonella enterica subsp. enterica serovar Typhi H NCTC 901.8394 at 10 ug after 24 hr by agar well diffusion method; format: functional; details: H NCTC 901.8394, 24 h, read-out: DIZ
Shigella boydii [16] = experiment: Antibacterial activity against Shigella boydii type 6 RSKK-96043 at 10 ug after 24 hr by agar well diffusion method; format: functional; details: type 6 RSKK-96043, 24 h, read-out: DIZ
Staphylococcus aureus [17] = experiment: Antibacterial activity against Staphylococcus aureus ATCC 25923 at 10 ug after 24 hr by agar well diffusion method; format: functional; details: ATCC 25923, 24 h, read-out: DIZ
Shigella boydii [18] = experiment: Antibacterial activity against Shigella boydii type 11 at 10 ug after 24 hr by agar well diffusion method; format: functional; details: type 11, 24 h, read-out: DIZ
Pseudomonas putida [19] = experiment: Antibacterial activity against Pseudomonas putida at 5 ug after 24 hr by agar well diffusion method; format: functional; details: read-out: DIZ
Shigella boydii [20] = experiment: Antibacterial activity against Shigella boydii type 11 at 5 ug after 24 hr by agar well diffusion method; format: functional; details: type 11, 24 h, read-out: DIZ
Shigella boydii [21] = experiment: Antibacterial activity against Shigella boydii type 16 at 5 ug after 24 hr by agar well diffusion method; format: functional; details: type 16, 24 h, read-out: DIZ
Shigella boydii [22] = experiment: Antibacterial activity against Shigella boydii type 6 RSKK-96043 at 5 ug after 24 hr by agar well diffusion method; format: functional; details: type 6 RSKK-96043, 24 h, read-out: DIZ
Listeria monocytogenes [23] = experiment: Antibacterial activity against Listeria monocytogenes ATCC 19115 at 5 ug after 24 hr by agar well diffusion method; format: functional; details: ATCC 19115, 24 h, read-out: DIZ
Proteus [24] = experiment: Antibacterial activity against Proteus OX2 Wrah at 5 ug after 24 hr by agar well diffusion method; format: functional; details: read-out: DIZ
Staphylococcus aureus [25] = experiment: microbe, parasite or virus in culture; details: ATCC 25923, 24 h, read-out: DIZ
Salmonella typhimurium [26] = experiment: Antibacterial activity against Salmonella enterica subsp. enterica serovar Typhi H NCTC 901.8394 at 5 ug after 24 hr by agar well diffusion method; format: functional; details: H NCTC 901.8394, 24 h, read-out: DIZ
Shigella boydii [27] = experiment: Antibacterial activity against Shigella boydii type 6 RSKK-96043 at 30 ug after 24 hr by agar well diffusion method; format: functional; details: type 6 RSKK-96043, 24 h, read-out: DIZ
Listeria monocytogenes [28] = experiment: Antibacterial activity against Listeria monocytogenes ATCC 19115 at 30 ug after 24 hr by agar well diffusion method; format: functional; details: ATCC 19115, 24 h, read-out: DIZ
Staphylococcus aureus [29] = experiment: Antibacterial activity against Staphylococcus aureus ATCC 25923 at 30 ug after 24 hr by agar well diffusion method; format: functional; details: ATCC 25923, 24 h, read-out: DIZ
Proteus [30] = experiment: Antibacterial activity against Proteus OX2 Wrah at 30 ug after 24 hr by agar well diffusion method; format: functional; details: read-out: DIZ
Shigella boydii [31] = experiment: Antibacterial activity against Shigella boydii type 16 at 30 ug after 24 hr by agar well diffusion method; format: functional; details: type 16, 24 h, read-out: DIZ
Escherichia coli [32] = experiment: Antibacterial activity against Escherichia coli ATCC 1280 at 30 ug after 24 hr by agar well diffusion method; format: functional; details: ATCC 1280, 24 h, read-out: DIZ
Shigella boydii [33] = experiment: Antibacterial activity against Shigella boydii type 11 at 30 ug after 24 hr by agar well diffusion method; format: functional; details: type 11, 24 h, read-out: DIZ
Pseudomonas putida [34] = experiment: Antibacterial activity against Pseudomonas putida at 30 ug after 24 hr by agar well diffusion method; format: functional; details: read-out: DIZ
Salmonella typhimurium [35] = experiment: Antibacterial activity against Salmonella enterica subsp. enterica serovar Typhi H NCTC 901.8394 at 30 ug after 24 hr by agar well diffusion method; format: functional; details: H NCTC 901.8394, 24 h, read-out: DIZ

In the case of `CCOC(=O)c1c(/N=C/c2c(O)ccc3ccccc23)sc2c1CCC2`, the zone of inhibition at 0.25 µg/mL (Listeria monocytogenes [1]) is reported as 7 mm, the zone of inhibition at 0.25 µg/mL (Staphylococcus aureus [2]) is reported as 14 mm and the zone of inhibition at 0.25 µg/mL (Shigella boydii [3]) is reported as 8 mm. The zone of inhibition at 0.25 µg/mL (Escherichia coli [4]) was 6 mm, the zone of inhibition at 0.25 µg/mL (Proteus [5]) was 5 mm and the zone of inhibition at 0.25 µg/mL (Salmonella typhimurium [6]) was 6 mm. The zone of inhibition at 0.25 µg/mL (Candida albicans) was 14 mm, the zone of inhibition at 0.25 µg/mL (Pseudomonas putida [7]) was 8 mm and the zone of inhibition at 0.25 µg/mL (Shigella boydii [8]) was 7 mm. The zone of inhibition at 0.25 µg/mL (Shigella boydii [9]) was 6 mm and the “diameter of the inhibition zone (DIZ)” value (Brucella abortus) was “inactive”.
Compound `CC1(C)S[C@@H]2[C@H](NC(=O)[C@H](N)c3ccccc3)C(=O)N2[C@H]1C(=O)O` [AMPICILLIN] has a zone of inhibition at 10 µg/disc (Shigella boydii [10]) of 16 mm, a zone of inhibition at 10 µg/disc (Listeria monocytogenes [11]) of 16 mm and a zone of inhibition at 10 µg/disc (Proteus [12]) of 9 mm. The zone of inhibition at 10 µg/disc (Escherichia coli [13]) was 10 mm, the zone of inhibition at 10 µg/disc (Pseudomonas putida [14]) was 8 mm and the zone of inhibition at 10 µg/disc (Salmonella typhimurium [15]) was 11 mm. The zone of inhibition at 10 µg/disc (Shigella boydii [16]) was 6 mm, the zone of inhibition at 10 µg/disc (Staphylococcus aureus [17]) was 30 mm and the zone of inhibition at 10 µg/disc (Shigella boydii [18]) was 20 mm.
`O=C(O)c1cn(C2CC2)c2cc(N3CCNCC3)c(F)cc2c1=O` [CIPROFLOXACIN] showed a zone of inhibition at 5 µg/disc (Pseudomonas putida [19]) of 20 mm, a zone of inhibition at 5 µg/disc (Shigella boydii [20]) of 25 mm and a zone of inhibition at 5 µg/disc (Shigella boydii [21]) of 20 mm. It also gave a zone of inhibition at 5 µg/disc (Shigella boydii [22]) of 30 mm, a zone of inhibition at 5 µg/disc (Listeria monocytogenes [23]) of 17 mm and a zone of inhibition at 5 µg/disc (Proteus [24]) of 27 mm. The zone of inhibition at 5 µg/disc (Staphylococcus aureus [25]) was 25 mm and the zone of inhibition at 5 µg/disc (Salmonella typhimurium [26]) was 23 mm.
For `NC[C@H]1O[C@H](O[C@H]2[C@H](O)[C@@H](O[C@H]3O[C@H](CO)[C@@H](O)[C@H](N)[C@H]3O)[C@H](N)C[C@@H]2N)[C@H](O)[C@@H](O)[C@@H]1O` [KANAMYCIN], the zone of inhibition at 30 µg/disc (Shigella boydii [27]) was 15 mm, the zone of inhibition at 30 µg/disc (Listeria monocytogenes [28]) was 15 mm and the zone of inhibition at 30 µg/disc (Staphylococcus aureus [29]) was 25 mm. For the same compound, the zone of inhibition at 30 µg/disc (Proteus [30]) was 25 mm, the zone of inhibition at 30 µg/disc (Shigella boydii [31]) was 16 mm and the zone of inhibition at 30 µg/disc (Escherichia coli [32]) was 25 mm. The zone of inhibition at 30 µg/disc (Shigella boydii [33]) was 14 mm, the zone of inhibition at 30 µg/disc (Pseudomonas putida [34]) was 14 mm and the zone of inhibition at 30 µg/disc (Salmonella typhimurium [35]) was 20 mm.
